Read-outs that look alike come from different tables or passages of the source.
Test system: MDRAB
Test: Checkerboard assay (combined-use MIC, FIC)
Type: cell-based, Acinetobacter baumannii
Conditions: for FIC, all strains / MIC50 of the antibiotic after combined use / MIC90 of the antibiotic after combined use / reduction of the antibiotic's MIC50 vs single use / reduction of the antibiotic's MIC90 vs single use / share of strains with FIC ≤ 0.5: 20 MDRABs; for MIC: Acinetobacter baumannii, EA=60% ethanol extract, read-out: single-use MIC
In short: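 Checkerboard combinations of S20b and antibiotic run per NCCLS method against ESBL E. coli, MDR A. baumannii and MDR P. aeruginosa.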

[1] = antibiotic with 60% ethanol extract
[2] = antibiotic with 95% ethanol extract
[3] = antibiotic with EA (10% ethanol extract)
[4] = antibiotic with EA (water extract)

CC(C)(O/N=C(\C(=O)N[C@@H]1C(=O)N2C(C(=O)[O-])=C(C[n+]3ccccc3)CS[C@H]12)c1csc(N)n1)C(=O)O [CAZ, Ceftazidime]
FIC, all strains [1]: ≤ 2 | MIC50 of the antibiotic after combined use [1]: 128 mg/L | MIC90 of the antibiotic after combined use [1]: 256 mg/L | reduction of the antibiotic's MIC50 vs single use [1]: 75% | reduction of the antibiotic's MIC90 vs single use [1]: 50% | share of strains with FIC ≤ 0.5 [1]: 10% | FIC, all strains [2]: ≤ 2 | MIC50 of the antibiotic after combined use [2]: 128 mg/L | MIC90 of the antibiotic after combined use [2]: 256 mg/L | reduction of the antibiotic's MIC50 vs single use [2]: 75% | reduction of the antibiotic's MIC90 vs single use [2]: 50% | share of strains with FIC ≤ 0.5 [2]: 10% | FIC, all strains [3]: ≤ 2 | MIC50 of the antibiotic after combined use [3]: 128 mg/L | MIC90 of the antibiotic after combined use [3]: 256 mg/L | reduction of the antibiotic's MIC50 vs single use [3]: 75% | reduction of the antibiotic's MIC90 vs single use [3]: 50% | share of strains with FIC ≤ 0.5 [3]: 30% | FIC, all strains [4]: ≤ 2 | MIC50 of the antibiotic after combined use [4]: 128 mg/L | MIC90 of the antibiotic after combined use [4]: 256 mg/L | reduction of the antibiotic's MIC50 vs single use [4]: 75% | reduction of the antibiotic's MIC90 vs single use [4]: 50% | share of strains with FIC ≤ 0.5 [4]: 20% | MIC (strain A1): 128 mg/L | MIC (strain A2): 512 mg/L | MIC (strain A3): 512 mg/L | MIC (strain A4): 256 mg/L | MIC (strain A5): 64 mg/L | MIC (strain A6): 1020 mg/L | MIC (strain A7): 1020 mg/L | MIC (strain A8): 512 mg/L | MIC (strain A9): 512 mg/L | MIC (strain A10): 512 mg/L | MIC (strain A11): 512 mg/L | MIC (strain A12): 512 mg/L | MIC (strain A13): 256 mg/L | MIC (strain A14): 512 mg/L | MIC (strain A15): 256 mg/L | MIC (strain A16): 512 mg/L | MIC (strain A17): 256 mg/L | MIC (strain A18): 512 mg/L | MIC (strain A19): 256 mg/L | MIC (strain A20): 512 mg/L | combined-use MIC (strain A1, EA (10% ethanol extract) with CAZ): 64 mg/L | combined-use MIC (strain A1, EA (60% ethanol extract) + CAZ combined): 64 mg/L | combined-use MIC (strain A1, EA (P. clypearia 95% ethanol extract) combined with CAZ): 64 mg/L | combined-use MIC (strain A1, EA (water extract) with CAZ): 64 mg/L | combined-use MIC (strain A2, EA (10% ethanol extract) with CAZ): 256 mg/L | combined-use MIC (strain A2, EA (60% ethanol extract) + CAZ combined): 128 mg/L | combined-use MIC (strain A2, EA (P. clypearia 95% ethanol extract) combined with CAZ): 128 mg/L | combined-use MIC (strain A2, EA (water extract) with CAZ): 256 mg/L | combined-use MIC (strain A3, EA (10% ethanol extract) with CAZ): 256 mg/L | combined-use MIC (strain A3, EA (60% ethanol extract) + CAZ combined): 128 mg/L | combined-use MIC (strain A3, EA (P. clypearia 95% ethanol extract) combined with CAZ): 128 mg/L | combined-use MIC (strain A3, EA (water extract) with CAZ): 256 mg/L | combined-use MIC (strain A4, EA (10% ethanol extract) with CAZ): 64 mg/L | combined-use MIC (strain A4, EA (60% ethanol extract) + CAZ combined): 64 mg/L | combined-use MIC (strain A4, EA (P. clypearia 95% ethanol extract) combined with CAZ): 64 mg/L | combined-use MIC (strain A4, EA (water extract) with CAZ): 32 mg/L | combined-use MIC (strain A5, EA (10% ethanol extract) with CAZ): 32 mg/L | combined-use MIC (strain A5, EA (60% ethanol extract) + CAZ combined): 32 mg/L | combined-use MIC (strain A5, EA (P. clypearia 95% ethanol extract) combined with CAZ): 32 mg/L | combined-use MIC (strain A5, EA (water extract) with CAZ): 32 mg/L | combined-use MIC (strain A6, EA (10% ethanol extract) with CAZ): 512 mg/L | combined-use MIC (strain A6, EA (60% ethanol extract) + CAZ combined): 512 mg/L | combined-use MIC (strain A6, EA (P. clypearia 95% ethanol extract) combined with CAZ): 512 mg/L | combined-use MIC (strain A6, EA (water extract) with CAZ): 512 mg/L | combined-use MIC (strain A7, EA (10% ethanol extract) with CAZ): 512 mg/L | combined-use MIC (strain A7, EA (60% ethanol extract) + CAZ combined): 256 mg/L | combined-use MIC (strain A7, EA (P. clypearia 95% ethanol extract) combined with CAZ): 256 mg/L | combined-use MIC (strain A7, EA (water extract) with CAZ): 512 mg/L | combined-use MIC (strain A8, EA (10% ethanol extract) with CAZ): 256 mg/L | combined-use MIC (strain A8, EA (60% ethanol extract) + CAZ combined): 256 mg/L | combined-use MIC (strain A8, EA (P. clypearia 95% ethanol extract) combined with CAZ): 256 mg/L | combined-use MIC (strain A8, EA (water extract) with CAZ): 256 mg/L | combined-use MIC (strain A9, EA (10% ethanol extract) with CAZ): 128 mg/L | combined-use MIC (strain A9, EA (60% ethanol extract) + CAZ combined): 64 mg/L | combined-use MIC (strain A9, EA (P. clypearia 95% ethanol extract) combined with CAZ): 256 mg/L | combined-use MIC (strain A9, EA (water extract) with CAZ): 64 mg/L | combined-use MIC (strain A10, EA (10% ethanol extract) with CAZ): 256 mg/L | combined-use MIC (strain A10, EA (60% ethanol extract) + CAZ combined): 128 mg/L | combined-use MIC (strain A10, EA (P. clypearia 95% ethanol extract) combined with CAZ): 256 mg/L | combined-use MIC (strain A10, EA (water extract) with CAZ): 256 mg/L | combined-use MIC (strain A11, EA (10% ethanol extract) with CAZ): 128 mg/L | combined-use MIC (strain A11, EA (60% ethanol extract) + CAZ combined): 64 mg/L | combined-use MIC (strain A11, EA (P. clypearia 95% ethanol extract) combined with CAZ): 64 mg/L | combined-use MIC (strain A11, EA (water extract) with CAZ): 256 mg/L | combined-use MIC (strain A12, EA (10% ethanol extract) with CAZ): 128 mg/L | combined-use MIC (strain A12, EA (60% ethanol extract) + CAZ combined): 128 mg/L | combined-use MIC (strain A12, EA (P. clypearia 95% ethanol extract) combined with CAZ): 128 mg/L | combined-use MIC (strain A12, EA (water extract) with CAZ): 128 mg/L | combined-use MIC (strain A13, EA (10% ethanol extract) with CAZ): 128 mg/L | combined-use MIC (strain A13, EA (60% ethanol extract) + CAZ combined): 128 mg/L | combined-use MIC (strain A13, EA (P. clypearia 95% ethanol extract) combined with CAZ): 128 mg/L | combined-use MIC (strain A13, EA (water extract) with CAZ): 128 mg/L | combined-use MIC (strain A14, EA (10% ethanol extract) with CAZ): 64 mg/L | combined-use MIC (strain A14, EA (60% ethanol extract) + CAZ combined): 256 mg/L | combined-use MIC (strain A14, EA (P. clypearia 95% ethanol extract) combined with CAZ): 256 mg/L | combined-use MIC (strain A14, EA (water extract) with CAZ): 64 mg/L | combined-use MIC (strain A15, EA (10% ethanol extract) with CAZ): 128 mg/L | combined-use MIC (strain A15, EA (60% ethanol extract) + CAZ combined): 128 mg/L | combined-use MIC (strain A15, EA (P. clypearia 95% ethanol extract) combined with CAZ): 128 mg/L | combined-use MIC (strain A15, EA (water extract) with CAZ): 128 mg/L | combined-use MIC (strain A16, EA (10% ethanol extract) with CAZ): 128 mg/L | combined-use MIC (strain A16, EA (60% ethanol extract) + CAZ combined): 128 mg/L | combined-use MIC (strain A16, EA (P. clypearia 95% ethanol extract) combined with CAZ): 256 mg/L | combined-use MIC (strain A16, EA (water extract) with CAZ): 64 mg/L | combined-use MIC (strain A17, EA (10% ethanol extract) with CAZ): 64 mg/L | combined-use MIC (strain A17, EA (60% ethanol extract) + CAZ combined): 128 mg/L | combined-use MIC (strain A17, EA (P. clypearia 95% ethanol extract) combined with CAZ): 128 mg/L | combined-use MIC (strain A17, EA (water extract) with CAZ): 32 mg/L | combined-use MIC (strain A18, EA (10% ethanol extract) with CAZ): 256 mg/L | combined-use MIC (strain A18, EA (60% ethanol extract) + CAZ combined): 128 mg/L | combined-use MIC (strain A18, EA (P. clypearia 95% ethanol extract) combined with CAZ): 128 mg/L | combined-use MIC (strain A18, EA (water extract) with CAZ): 256 mg/L | combined-use MIC (strain A19, EA (10% ethanol extract) with CAZ): 64 mg/L | combined-use MIC (strain A19, EA (60% ethanol extract) + CAZ combined): 128 mg/L | combined-use MIC (strain A19, EA (P. clypearia 95% ethanol extract) combined with CAZ): 128 mg/L | combined-use MIC (strain A19, EA (water extract) with CAZ): 128 mg/L | combined-use MIC (strain A20, EA (10% ethanol extract) with CAZ): 128 mg/L | combined-use MIC (strain A20, EA (60% ethanol extract) + CAZ combined): 256 mg/L | combined-use MIC (strain A20, EA (P. clypearia 95% ethanol extract) combined with CAZ): 256 mg/L | combined-use MIC (strain A20, EA (water extract) with CAZ): 64 mg/L
